Consider 3 molecules from patent US12280179B2 (Urotronic, Inc., priority 2012, dated 2025).

A short description of data set [1]: stability of additives with paclitaxel under ethylene oxide sterilization, heating and aging. The note with it: additive with paclitaxel; reacted with paclitaxel.
The conditions of data set [2]: with the addition of BSA; cited from earlier work.
The nature of data set [3]: Human clinical study, urethral strictures: paclitaxel in blood, urine, semen. The format is in vivo.
Description: Clinical subjects were evaluated at 14, 30, 90, 180, 365 days, and 2 years after the index procedure. Evaluations included analysis of stricture free rate, uroflowmetry including Qmax, and PVR.
Data set [4] in a line: Human clinical study, BPH: paclitaxel in blood, urine, semen. Type of data set: in vivo.
Data set [5] can be described thus: BPH Preclinical Study 4: tissue pharmacokinetics of paclitaxel. Type of data set: in vivo, dog. The text has this: (§1) This study was completed on mongrel canines.
The subject of a further data set is prostate. The data set is described as follows: BPH Preclinical Study 4: histology, clinical observation, urethra lumen diameter. The format is in vivo, dog.
Description: as §1

Data set [6] can be described thus: BPH Preclinical Study 4: plasma paclitaxel concentration. Type of data set: in vivo, dog.
Description: as §1

The subject of another data set is albumin. Particulars: cited from earlier work.

Take `O=C(O)c1ccccc1` [benzoic acid]: the “stability under ethylene oxide sterilization, heating, and aging process” value in data set [1] was “not stable”.
Consider `CC(=O)O[C@H]1C(=O)[C@@]2(C)[C@H]([C@H](OC(=O)c3ccccc3)[C@]3(O)C[C@H](OC(=O)[C@H](O)[C@@H](NC(=O)c4ccccc4)c4ccccc4)C(C)=C1C3(C)C)[C@]1(OC(C)=O)CO[C@@H]1C[C@@H]2O` [paclitaxel], for which the “increase of solubility in PBS” value in data set [2] is on record as “over 20 fold”. In addition, the “Human plasma paclitaxel concentration” value in data set [3] (1 hour, 3 hours, 5 hours, 10 hours, 24 hours, and 5 days) is given as “below the level of quantification”. For the same molecule, the concentration at 14 days in data set [3] (human, semen) came to 2.5 ng/mL; in data set [3] (human, urine) it was 0.3 ng/mL; in data set [4] (male, human, semen, 2.4 μg of paclitaxel per millimeter squared, 14 days), 5.3 ng/mL. Further, the concentration at 30 days was determined as 1 ng/mL in data set [3] (human, semen); 0.1 ng/mL in data set [3] (human, urine); 5.1 ng/mL in data set [4] (male, human, urine, 2.4 μg of paclitaxel per millimeter squared, 30 days). This molecule registered a concentration at 5 days in data set [3] (human, urine, 5 days) of 2.6 ng/mL. Moreover, the “Human urine paclitaxel concentration, average” value in data set [3] (immediately post procedure) stood at 184 ng/mL; in data set [4] (immediately post procedure), 598 ng/mL. For the same molecule, the “Human plasma paclitaxel concentration, average” value in data set [3] (immediately post treatment) was determined as 0.1 ng/mL; in data set [4] (immediately post treatment), 0.2 ng/mL. Further, the concentration at 1 h in data set [4] (male, human, plasma, 2.4 μg of paclitaxel per millimeter squared, 1 hour) amounted to 0.2 ng/mL; in data set [5] (male, mongrel, dog, prostatic urethra, other: transurethral drug-coated balloon catheter, 6.8 mg), 28000 ng/g. The same molecule displayed a concentration at 3 h in data set [4] (male, human, plasma, 2.4 μg of paclitaxel per millimeter squared, 3 hours) of 0.1 ng/mL. This molecule also yielded a concentration at 5 h in data set [4] (male, human, plasma, 2.4 μg of paclitaxel per millimeter squared, 5 hours) of 0.1 ng/mL. The molecule further yielded a concentration at 10 h in data set [4] (male, human, plasma, 2.4 μg of paclitaxel per millimeter squared, 10 hours) of 0.07 ng/mL. For the same molecule, the concentration at 24 h in data set [4] (male, human, plasma, 2.4 μg of paclitaxel per millimeter squared, 24 hours) came to 0.03 ng/mL. The concentration at 4 days in data set [4] (male, human, urine, 2.4 μg of paclitaxel per millimeter squared, 4 days) is 202 ng/mL. Also, the entries for the “prostate drug concentration, maximum dose arm versus standard dose” value in data set [5] (28 days) and in data set [5] (70 days) were 4.5 times and 23 times, respectively. Moreover, the results for the “prostatic urethra drug concentration, maximum dose arm versus standard dose” value in data set [5] (28 days) and in data set [5] (70 days) were 11 times and 23 times, respectively. Further, in data set [5] (lowest, immediately after treatment), the “average drug concentration, epididymis” value was 0.0017 µg/g. In addition, the concentration at 28 days in data set [5] (male, mongrel, dog, prostate, other: transurethral drug-coated balloon catheter, 6.8 mg, standard dose arm, 28 days) stood at 20 ng/g. In addition, in data set [5] (male, mongrel, dog, prostatic urethra, other: transurethral drug-coated balloon catheter, 6.8 mg, standard dose arm, 70 days), the concentration at 70 days was 4 ng/g. Besides, the “nonurethral close proximity tissue sample concentrations” value in data set [5] (most samples, 28 days and beyond) is “at or below the limit of quantification”. Also, the clinical abnormalities result with prostate (any animals, duration of the study) is “No significant clinical abnormalities”. Further, the prostate histology result in the data set on prostate (maximum dose animals, slower healing relative to standard dose and control) is “ongoing healing at 28 days”. Further, in the data set on prostate (maximum dose treatment arm using 19.6 mg of paclitaxel), the abnormalities or complications result is listed as “no abnormalities or complications”. The plasma paclitaxel concentration result in data set [6] (maximum dose, 12 hour and later) was “BLOQ”; in data set [6] (standard dose, all time-points (1, 3, 7, 12 hours, 1, 3, 7, 14, and 28 days)) it was “BLOQ”.
As for `CO[C@H]1C[C@@H]2CC[C@@H](C)[C@@](O)(O2)C(=O)C(=O)N2CCCC[C@H]2C(=O)O[C@H]([C@H](C)C[C@@H]2CC[C@@H](O)[C@H](OC)C2)CC(=O)[C@H](C)/C=C(\C)[C@@H](O)[C@@H](OC)C(=O)[C@H](C)C[C@H](C)/C=C/C=C/C=C/1C` [rapamycin], the protein bound with albumin is reported as 92%. Moreover, the “share of protein binding that is to albumin” value in the data set with albumin (primarily to albumin) was 97%.
